Test results from patent EP4644389A1, “PRMT5-MTA INHIBITOR” (Suzhou Puhe Biopharma Co., Ltd., priority 2022, dated 2024).
Where two headings read alike, the source gives them in different places.

Columns and labels:
HCT116-MTAPdel = assay: 2D anti-proliferation assay (CTG luminescence), MTAP-deficient HCT116 cells; format: cell-based; details: for IC50: Homo sapiens; for HCT116 WT/MTAPdel Selectivity: ratio of IC50 HCT116 WT / MTAPdel
Description: (§1) HCT116 wild-type and MTAP-deficient cells were cultured in MCCOYS 5A medium containing 10% FBS and 1% penicillin-streptomycin and incubated in a 37°C, 5% CO2 incubator. A 40 µL cell suspension was added to each well of a 384-well microplate. Using Echo, 40 nL of the compound at different concentrations were added to each well, followed by incubation in a 37°C, 5% CO2 incubator for 7-10 days. 40 µL of CTG solution (Promega, Cat No. G7573) was added to each well and incubated away from light in a 37°C, 5% CO2 incubator for 30 minutes. Luminescence was measured using an Envision multimode plate reader (Perkin Elmer, Catalog No. Envision 2104). The luminescence signal was proportional to the ATP content in the system, and the ATP content directly reflected the number of viable cells in the system.

HCT116-MTAPwt = assay: 2D anti-proliferation assay (CTG luminescence), wild-type HCT116 cells; format: cell-based; details: Homo sapiens, HCT-116, 7-10 days incubation
Description: By testing the activity of both of them, the inhibitory effect and selectivity of the molecules of the present invention for PRMT5 at the cellular level were shown.
as §1
ICso value calculation: [formula] • X: Log value of compound concentration • Y: Inhibition rate (%) Table 1: 2D Anti-proliferation Effects of Compounds on HTC116-MTAP del and Wild-type Colorectal Cancer HCT-116 Cell Lines.

[1] = Caco-2 membrane permeability assay; format: in vitro ADME; details: human; for efflux ratio: Caco-2, Efflux Ratio = Papp (B-A)/Papp (A-B); for Papp A→B / Papp B→A: Caco-2, apical pH 6.5, basolateral pH 7.4
Description: (§2) Evaluation of membrane permeability of the molecules of the present invention. Samples will be analyzed using LC-MS to estimate the apparent permeability coefficient (Papp) of the compound in Caco-2 monolayer cells, wherein the pH of the apical chamber is 6.5, and the pH of the basolateral chamber is 7.4. The P-gp efflux transporter, BCRP, and MRP2 inhibitors (50 µM quinidine, 30 µM benzbromarone, and 20 µM sulfasalazine) can block the active efflux transport of the compound. The data will be used for calculating apparent permeability (Papp). Papp = (VA×⌊drug⌋acceptor)/(Area×Time×⌊drug⌋initial,donor) [formula] wherein, VA is the volume of the receptor well (unit: mL), area is the membrane surface area (for Transwell-96 well permeable support, it is 0.143 cm^2), and time is the total transport time (unit: seconds). Efflux Ratio = Papp (B−A)/Papp (A−B) [formula]

Caco-2 monolayer cells = assay: Caco-2 membrane permeability assay; format: in vitro ADME; details: Caco-2, Efflux Ratio = Papp (B-A)/Papp (A-B)
Description: as §2

[2] = Liver microsomal stability, human; format: in vitro ADME; details: human liver microsomes 0.5 mg/mL, compound 1 µM, NADPH 1 mM, 60 minutes
Description: Microsomal stability experiment of the compound. The details are as follows: A microsomal stability test was conducted on the compounds of the present invention. The test compounds were co-incubated with liver microsomes from different species, with or without the addition of NADPH. In the test system, the final concentration of the test compound was 1 µM, the final concentration of NADPH was 1 mM, and the final concentration of liver microsomes was 0.5 mg/mL.

[3] = HCT-116, HCT116 MTAP-deficient cells, 7-10 days incubation, CTG, read-out: HCT116-MTAPdel/IC50/nM
[4] = HCT-116, read-out: HCT116-MTAPdel/IC50/nM

SMILES | IC50 (HCT116-MTAPdel; [3]) | HCT116 WT/MTAPdel Selectivity (HCT116-MTAPdel) | IC50 (HCT116-MTAPwt) | further results
Cc1c(CO)c(N)nc2cc(F)c(C(=O)N3C(C)COCC3c3ccc(-c4cncc(F)c4)cn3)cc12 (racemic) [Compound A3] | 5 nM | 291 | 1450 nM | –
Cc1c(CO)c(N)nc2cc(F)c(C(=O)N3C(C)COCC3c3ccc(-c4cncc(Cl)c4)cn3)cc12 (racemic) [Compound A4] | 7 nM | 164 | 1140 nM | –
Cc1c(CO)c(N)nc2cc(F)c(C(=O)N3C(C)COCC3c3ccc(OC(F)(F)F)cc3)cc12 (racemic) [Compound A5] | 18 nM | 75 | 1360 nM | –
Cc1c(CO)c(N)nc2cc(F)c(C(=O)N3C(C)COCC3c3ccc(C(F)(F)F)cc3)cc12 (racemic) [Compound A6] | 7 nM | 145 | 1020 nM | –
Cc1c(CO)c(N)nc2cc(F)c(C(=O)N3CC(C)CCC3c3ccc4scnc4c3)cc12 (racemic) [Compound A7] | 88 nM | 44 | 3880 nM | –
Cc1c(CO)c(N)nc2cc(F)c(C(=O)N3CC(C)CCC3c3ccc4ncsc4c3)cc12 (racemic) [Compound A8] | 150 nM | 13 | 2000 nM | –
Cc1c(CO)c(N)nc2cc(F)c(C(=O)N(C)C3COc4cc(C(F)(F)F)ccc43)cc12 (racemic) [Compound A9] | 27 nM | 174 | 4700 nM | efflux ratio [1]: 1.2; Papp A→B [1]: 5.1 ×10⁻⁶ cm/s; Papp B→A [1]: 5.9 ×10⁻⁶ cm/s; Efflux (Caco-2 monolayer cells): < 2; CLint scaled at 1 µM [2]: 3.6 mL/min/kg
Cc1c(CO)c(N)nc2cc(F)c(C(=O)N(C)C3COCc4nc(C(F)(F)F)ccc43)cc12 (racemic) [Compound A10] | 18 nM | >556 | > 10000 nM | efflux ratio [1]: 3.8; Papp A→B [1]: 8.1 ×10⁻⁶ cm/s; Papp B→A [1]: 31 ×10⁻⁶ cm/s; CLint scaled at 1 µM [2]: 11.1 mL/min/kg
Cc1c(CO)c(N)nc2cc(F)c(C(=O)N(C)[C@H]3COCc4nc(-c5cncc(Cl)c5)ccc43)cc12 (racemic) [Compound A11] | 26 nM | 168 | 4380 nM | –
Cc1c(CO)c(N)nc2cc(F)c(C(=O)N(C)[C@H]3COCc4nc(-c5cncc(F)c5)ccc43)cc12 (racemic) [Compound A12] | 36 nM | 90 | 3250 nM | –
Cc1c(CO)c(N)nc2cc(F)c(C(=O)N(C)[C@H]3COCc4nc(-c5cncc(C(F)(F)F)c5)ccc43)cc12 (racemic) [Compound A13] | 32 nM | 117 | 3750 nM | –
CN(C(=O)c1ccc2nc(N)c(C3CC3)cc2c1)C1COc2cc(C(F)(F)F)ccc21 (racemic) [Compound H1] | 4250 nM | >2 | > 10000 nM | –
CN(C(=O)c1ccc2nc(N)c(C3CC3)cc2c1)C1COc2cc(-c3cnn(C)c3)ccc21 (racemic) [Compound H4] | 4350 nM | >3 | > 10000 nM | –
Cc1cc2cc(C(=O)N(Cc3ccc(C(F)(F)F)cn3)[C@H](C)c3ncccn3)ccc2nc1N [AM9747, reference compound] | – | – | 237 nM | IC50 (HCT116-MTAPdel; [4]): 7 nM
Cc1c(CO)c(N)nc2cc(Cl)c(C(=O)N3[C@@H](C)COC[C@H]3c3ccc(C(F)(F)F)cn3)cc12 [Compound A2a] | 3030 nM | >3 | > 10000 nM | –
Cc1c(CO)c(N)nc2cc(Cl)c(C(=O)N3[C@H](C)COC[C@@H]3c3ccc(C(F)(F)F)cn3)cc12 [Compound A2b] | 4 nM | 100 | 398 nM | –
CN(C(=O)c1ccc2nc(N)c(C3CC3)cc2c1)C1COc2cc(OC(F)(F)F)ccc21 (stereo not shown) [Compound H2] | 6290 nM | >1 | > 10000 nM | –

SMILES | IC50 (HCT116-MTAPdel; [3]) | HCT116 WT/MTAPdel Selectivity (HCT116-MTAPdel) | IC50 (HCT116-MTAPwt) | further results
CN(C(=O)c1ccc2nc(N)c(C3CC3)cc2c1)C1COCc2nc(C(F)(F)F)ccc21 (stereo not shown) [Compound H3] | 926 nM | >11 | > 10000 nM | –
CN(C(=O)c1ccc2nc(N)c(C3CC3)cc2c1)C1COc2cc(-c3cnn(C(F)(F)F)c3)ccc21 (stereo not shown) [Compound H5] | 2960 nM | 3 | 8020 nM | –
Cc1c(C2CC2)c(N)nc2cc(F)c(C(=O)N(C)C3COCc4nc(C(F)(F)F)ccc43)cc12 (stereo not shown) [Compound H6] | 33 nM | 16 | 532 nM | –
Cc1c(C2CC2)c(N)nc2cc(Cl)c(C(=O)N(C)C3COCc4nc(C(F)(F)F)ccc43)cc12 (stereo not shown) [Compound H7] | 29 nM | 38 | 1110 nM | –
C[C@H]1COC[C@@H](c2ccc(C(F)(F)F)cn2)N1C(=O)c1cc2cc(C3CC3)c(N)nc2cc1F [Compound P2] | 93 nM | >108 | > 10000 nM | –
Nc1nc2cc(F)c(C(=O)N3CCOCC3c3ccc(C(F)(F)F)cn3)cc2cc1C1CC1 (stereo not shown) [Compound P3] | 2870 nM | >4 | > 10000 nM | –
C[C@H]1COC[C@@H](c2ccc(C(F)(F)F)cn2)N1C(=O)c1ccc2nc(N)c(C3CC3)cc2c1 [Compound P4] | 790 nM | >13 | > 10000 nM | –
CC(C)N1CCN(c2ccc([C@@H]3COC[C@H](C)N3C(=O)c3cc4cc(C5CC5)c(N)nc4cc3F)cc2)CC1 [Compound P5] | 612 nM | >16 | > 10000 nM | –
C[C@H]1COC[C@@H](c2ccc(OC(F)(F)F)cc2)N1C(=O)c1cc2cc(C3CC3)c(N)nc2cc1Cl [Compound P6] | 156 nM | – | – | –
Cc1c(C2CC2)c(N)nc2cc(Cl)c(C(=O)N3[C@H](C)COC[C@@H]3c3ccc(C(F)(F)F)cn3)cc12 [Compound P7a] | 230 nM | 7 | 1640 nM | –
Cc1c(C2CC2)c(N)nc2cc(Cl)c(C(=O)N3[C@@H](C)COC[C@H]3c3ccc(C(F)(F)F)cn3)cc12 [Compound P7b] | 2540 nM | 2 | 3800 nM | –
C[C@H]1COC[C@@H](c2ccc(OC(F)F)nn2)N1C(=O)c1cc2cc(C3CC3)c(N)nc2cc1F [Compound P8] | 96 nM | >104 | > 10000 nM | –
Cc1c(C2CC2)c(N)nc2cc(F)c(C(=O)N3[C@@H](C)COC[C@H]3c3ccc(-c4cncc(Cl)c4)cn3)cc12 [Compound P9] | 16 nM | 59 | 936 nM | –
Cc1c(C2CC2)c(N)nc2cc(F)c(C(=O)N3[C@@H](C)COC[C@H]3c3ccc(-c4cncc(C(F)(F)F)c4)cn3)cc12 [Compound P10] | 34 nM | 55 | 1860 nM | –
CC(=O)N1CCC(Nc2cc(C(=O)NC[C@H](O)CN3CCc4ccccc4C3)ncn2)CC1 [GSK3326595, reference compound] | 17 nM | 4 | 72 nM | –
Cc1cc(NC(=O)C(=O)N2C[C@@H](C)CC[C@@H]2c2ccc3scnc3c2)cnc1N [TNG908, reference compound] | – | 23 | 1230 nM | selectivity (HCT116-MTAPdel; HCT116 WT vs MTAP-deleted): 23 fold; IC50 (HCT116-MTAPdel; [4]): 54 nM
